HELM strings list units from the 5' end as sugar, base in round brackets, then linkage (d deoxyribose, r ribose, m 2'-O-methyl, p phosphodiester). Strings are as the collection lists them; they lack the last nucleoside at the 3' end of the tested compound. [moe] = 2'-O-(2-methoxyethyl) (MOE); [sp] = phosphorothioate linkage; [m5C] = 5-methylcytosine

For 25 substances, 3 h FOB score results are on record in the OligoGym collection.

This data set deals with SCN2A. The data set can be described thus: mouse, dose not given. To be noted: ASO.
In turn, “RNA1{[moe](G)[sp].[moe](A)p.[moe]([m5C])p.[moe]([m5C])p.[moe](G)p.[moe](T)p.d([m5C])[sp].d(T)[sp].d([m5C])[sp].d(T)[sp].d(T)[sp].d(T)[sp].d([m5C])[sp].d(T)[sp].d(T)[sp].d(A)[sp].[moe](T)p.[moe](T)[sp].[moe](T)}$$$$ (last 3' nucleoside missing)” showed a 3 h FOB score of 0 score 0-7.
Substance “RNA1{[moe]([m5C])[sp].[moe](T)p.[moe](G)p.[moe](G)p.[moe](A)p.d([m5C])[sp].d([m5C])[sp].d(G)[sp].d(T)[sp].d([m5C])[sp].d(T)[sp].d([m5C])[sp].d(T)[sp].d(T)[sp].d(T)[sp].[moe]([m5C])p.[moe](T)p.[moe](T)[sp].[moe](A)}$$$$ (last 3' nucleoside missing)” returned a 3 h FOB score of 1 score 0-7.
In the case of “RNA1{[moe](T)[sp].[moe]([m5C])p.[moe](T)p.[moe](A)p.[moe](T)[sp].d(T)[sp].d(T)[sp].d(T)[sp].d(A)[sp].d(T)[sp].d(A)[sp].d(A)[sp].d(A)[sp].[moe](T)p.[moe](G)p.[moe]([m5C])[sp].[moe]([m5C])}$$$$ (last 3' nucleoside missing)”, the 3 h FOB score was 1.33 score 0-7.
Consider “RNA1{[moe]([m5C])[sp].[moe](A)p.[moe]([m5C])p.[moe](G)p.[moe](A)p.[moe]([m5C])p.d(A)[sp].d(T)[sp].d(A)[sp].d(T)[sp].d(T)[sp].d(T)[sp].d(T)[sp].d(T)[sp].d([m5C])[sp].d(T)[sp].[moe](A)p.[moe]([m5C])[sp].[moe](A)}$$$$ (last 3' nucleoside missing)”, for which the 3 h FOB score stood at 0.5 score 0-7.
Regarding “RNA1{[moe](A)[sp].[moe](T)p.[moe]([m5C])p.[moe](A)p.[moe](T)p.d(G)[sp].d([m5C])[sp].d(A)[sp].d(T)[sp].d(A)[sp].d(A)[sp].d(T)[sp].d([m5C])[sp].d([m5C])[sp].d([m5C])[sp].[moe](A)p.[moe](T)p.[moe](T)[sp].[moe](A)}$$$$ (last 3' nucleoside missing)”, the 3 h FOB score came out at 0 score 0-7.
“RNA1{[moe](A)[sp].[moe]([m5C])p.[moe]([m5C])p.[moe](G)p.[moe](A)p.[moe](A)p.d(T)[sp].d(T)[sp].d([m5C])[sp].d(T)[sp].d(A)[sp].d(T)[sp].d(T)[sp].d(T)[sp].d(T)[sp].d(A)[sp].[moe](T)p.[moe](A)[sp].[moe](A)}$$$$ (last 3' nucleoside missing)” returned a 3 h FOB score of 1.67 score 0-7.
For “RNA1{[moe]([m5C])[sp].[moe](A)p.[moe](T)p.[moe](A)p.d(T)[sp].d(T)[sp].d(T)[sp].d(T)[sp].d(T)[sp].d([m5C])[sp].d(T)[sp].d(A)[sp].d([m5C])[sp].d(A)[sp].[moe]([m5C])p.[moe](T)p.[moe](G)p.[moe]([m5C])[sp].[moe](T)}$$$$ (last 3' nucleoside missing)” the value was 2 score 0-7; for “RNA1{[moe](A)[sp].[moe](T)p.[moe]([m5C])p.[moe](A)p.d(T)[sp].d(G)[sp].d([m5C])[sp].d(A)[sp].d(T)[sp].d(A)[sp].d(A)[sp].d(T)[sp].d([m5C])[sp].d([m5C])[sp].[moe]([m5C])p.[moe](A)p.[moe](T)p.[moe](T)[sp].[moe](A)}$$$$ (last 3' nucleoside missing)”, 1 score 0-7.
For “RNA1{[moe](G)[sp].[moe](A)p.[moe]([m5C])p.[moe]([m5C])p.[moe](G)p.[moe](A)p.d(A)[sp].d(T)[sp].d(T)[sp].d([m5C])[sp].d(T)[sp].d(A)[sp].d(T)[sp].d(T)[sp].d(T)[sp].d(T)[sp].[moe](A)p.[moe](T)[sp].[moe](A)}$$$$ (last 3' nucleoside missing)” the value was 0 score 0-7.
In turn, “RNA1{[moe](G)[sp].[moe](T)p.[moe](A)p.[moe](A)p.[moe]([m5C])p.d([m5C])[sp].d(T)[sp].d(T)[sp].d(T)[sp].d(A)[sp].d(T)[sp].d(A)[sp].d([m5C])[sp].d(A)[sp].d(T)[sp].[moe](T)p.[moe](T)p.[moe](A)[sp].[moe](A)}$$$$ (last 3' nucleoside missing)” showed a 3 h FOB score of 0.33 score 0-7.
“RNA1{[moe](T)[sp].[moe]([m5C])p.[moe](T)p.[moe]([m5C])p.d(T)[sp].d(T)[sp].d(T)[sp].d([m5C])[sp].d(T)[sp].d(T)[sp].d(A)[sp].d(T)[sp].d(T)[sp].d(T)[sp].[moe]([m5C])p.[moe](T)p.[moe](G)p.[moe](T)[sp].[moe](T)}$$$$ (last 3' nucleoside missing)”: the 3 h FOB score amounted to 0 score 0-7.
Under “RNA1{[moe](A)[sp].[moe](T)p.[moe]([m5C])p.[moe](A)p.d([m5C])[sp].d(T)[sp].d(T)[sp].d(T)[sp].d([m5C])[sp].d(A)[sp].d(T)[sp].d([m5C])[sp].d([m5C])[sp].d(A)[sp].[moe]([m5C])p.[moe](G)p.[moe](A)p.[moe]([m5C])[sp].[moe](A)}$$$$ (last 3' nucleoside missing)” stands 1 score 0-7; under “RNA1{[moe](G)[sp].[moe]([m5C])p.[moe](A)p.[moe](T)p.[moe](G)p.[moe](T)[sp].d(A)[sp].d(A)[sp].d([m5C])[sp].d([m5C])[sp].d(T)[sp].d(T)[sp].d(T)[sp].d(A)[sp].[moe](T)p.[moe](A)[sp].[moe]([m5C])}$$$$ (last 3' nucleoside missing)”, 0.33 score 0-7.
As to “RNA1{[moe](A)[sp].[moe](T)p.[moe](G)p.[moe]([m5C])p.[moe](A)p.[moe](T)p.d(A)[sp].d(A)[sp].d(T)[sp].d([m5C])[sp].d([m5C])[sp].d([m5C])[sp].d(A)[sp].d(T)[sp].d(T)[sp].d(A)[sp].[moe](T)p.[moe](A)[sp].[moe]([m5C])}$$$$ (last 3' nucleoside missing)”, the 3 h FOB score is 0 score 0-7.
“RNA1{[moe]([m5C])[sp].[moe](A)p.[moe](T)p.[moe](T)p.[moe](T)p.[moe]([m5C])p.d(T)[sp].d(A)[sp].d(T)[sp].d(A)[sp].d(A)[sp].d([m5C])[sp].d(T)[sp].d([m5C])[sp].d(A)[sp].d(G)[sp].[moe]([m5C])p.[moe](A)[sp].[moe](A)}$$$$ (last 3' nucleoside missing)” gave a 3 h FOB score of 0 score 0-7.
“RNA1{[moe](A)[sp].[moe](T)p.[moe]([m5C])p.[moe](A)p.[moe]([m5C])p.[moe](T)p.d(T)[sp].d(T)[sp].d([m5C])[sp].d(A)[sp].d(T)[sp].d([m5C])[sp].d([m5C])[sp].d(A)[sp].d([m5C])[sp].d(G)[sp].[moe](A)p.[moe]([m5C])[sp].[moe](A)}$$$$ (last 3' nucleoside missing)” showed a 3 h FOB score of 0 score 0-7.
Consider “RNA1{[moe]([m5C])[sp].[moe](A)p.[moe](T)p.[moe](G)p.[moe](T)p.d(A)[sp].d(A)[sp].d([m5C])[sp].d([m5C])[sp].d(T)[sp].d(T)[sp].d(T)[sp].d(A)[sp].d(T)[sp].d(A)[sp].[moe]([m5C])p.[moe](A)p.[moe](T)[sp].[moe](T)}$$$$ (last 3' nucleoside missing)”, for which the 3 h FOB score came out at 0 score 0-7.
Under “RNA1{[moe](A)[sp].[moe](G)p.[moe]([m5C])p.[moe](A)p.[moe](T)p.d(G)[sp].d(T)[sp].d(T)[sp].d(T)[sp].d(A)[sp].d(T)[sp].d([m5C])[sp].d(T)[sp].d(T)[sp].d(A)[sp].[moe](G)p.[moe](T)p.[moe](T)[sp].[moe]([m5C])}$$$$ (last 3' nucleoside missing)” stands 0 score 0-7; under “RNA1{[moe](G)[sp].[moe](G)p.[moe](G)p.[moe](A)p.[moe](T)p.d(A)[sp].d(G)[sp].d(T)[sp].d(G)[sp].d([m5C])[sp].d(T)[sp].d([m5C])[sp].d([m5C])[sp].d(A)[sp].d(T)[sp].[moe](A)p.[moe](G)p.[moe]([m5C])[sp].[moe]([m5C])}$$$$ (last 3' nucleoside missing)”, 1.33 score 0-7; under “RNA1{[moe](A)[sp].[moe](A)p.[moe](T)p.[moe](T)p.d([m5C])[sp].d(T)[sp].d(A)[sp].d(T)[sp].d(T)[sp].d(T)[sp].d(T)[sp].d(A)[sp].d(T)[sp].d(A)[sp].[moe](A)p.[moe](A)p.[moe](T)p.[moe](G)[sp].[moe]([m5C])}$$$$ (last 3' nucleoside missing)”, 0 score 0-7.
“RNA1{[moe](G)[sp].[moe]([m5C])p.[moe](A)p.[moe](T)p.[moe](G)p.[moe](T)p.d(A)[sp].d(A)[sp].d([m5C])[sp].d([m5C])[sp].d(T)[sp].d(T)[sp].d(T)[sp].d(A)[sp].d(T)[sp].d(A)[sp].[moe]([m5C])p.[moe](A)[sp].[moe](T)}$$$$ (last 3' nucleoside missing)” registered a 3 h FOB score of 0 score 0-7.
Substance “RNA1{[moe](G)[sp].[moe](A)p.[moe]([m5C])p.[moe]([m5C])p.[moe](G)p.d(A)[sp].d(A)[sp].d(T)[sp].d(T)[sp].d([m5C])[sp].d(T)[sp].d(A)[sp].d(T)[sp].d(T)[sp].d(T)[sp].[moe](T)p.[moe](A)p.[moe](T)[sp].[moe](A)}$$$$ (last 3' nucleoside missing)” displayed a 3 h FOB score of 1 score 0-7.
Consider “RNA1{[moe](A)[sp].[moe](T)p.[moe](G)p.[moe](T)p.d(A)[sp].d(A)[sp].d([m5C])[sp].d([m5C])[sp].d(T)[sp].d(T)[sp].d(T)[sp].d(A)[sp].d(T)[sp].d(A)[sp].[moe]([m5C])p.[moe](A)p.[moe](T)p.[moe](T)[sp].[moe](T)}$$$$ (last 3' nucleoside missing)”, for which the 3 h FOB score was determined as 0 score 0-7.
“RNA1{[moe](A)[sp].[moe]([m5C])p.[moe]([m5C])p.[moe]([m5C])p.[moe](A)[sp].d(G)[sp].d(T)[sp].d(T)[sp].d(T)[sp].d(T)[sp].d(T)[sp].d(T)[sp].d([m5C])[sp].[moe](A)p.[moe](T)p.[moe](T)[sp].[moe](G)}$$$$ (last 3' nucleoside missing)”: the 3 h FOB score was found to be 1.33 score 0-7.
As to “RNA1{[moe](G)[sp].[moe](A)p.[moe](A)p.[moe](T)p.d(T)[sp].d([m5C])[sp].d(T)[sp].d(A)[sp].d(T)[sp].d(T)[sp].d(T)[sp].d(T)[sp].d(A)[sp].d(T)[sp].[moe](A)p.[moe](A)p.[moe](A)p.[moe](T)[sp].[moe](G)}$$$$ (last 3' nucleoside missing)”, the 3 h FOB score amounted to 0.67 score 0-7.
